Data reported in article PMC12677653, “Inhibition of Tumor Lipogenesis and Growth by Peptide‐Based Targeting of SREBP Activation” (Advanced Science, 2025).

System: lipid levels, Ki67, Insig1 pS207/Insig2 pS151
Assay: Oil Red O and IHC of tumors from high-fat diet mice
Assay type: in vivo, nude mice
Conditions: orthotopic Huh7, high-fat diet, IHC; semaglutide 30 nmol/kg ip daily and/or LNP peptide 10 mg/kg iv
Description: Figure 5 The Insig1/2 loop 1 peptide in combination with semaglutide treatment induces an additive tumor inhibitor effect. a–c) Huh7 cells were orthotopically injected into the liver of nude mice (n = 7 per group). Treatment groups received intravenous injections of LNP@Insig1/2 loop 1 peptide (10 mg kg^−1, every other day), and/or intraperitoneal injection of Semaglutide (30 nmol kg^−1, daily). (a) Representative optical images of tumors, (b) tumor weights, data are expressed as mean ± SD, statistical significance was determined by one‐way analysis of variance (ANOVA), and (c) survival analysis was performed using Kaplan‐Meier curves. Statistical significance was determined by Log‐rank (Mantel‐Cox) test. d) Cryosections of mouse tumor tissues were prepared, and lipid accumulation was assessed by Oil Red O staining. […] Quantitative analysis of lipid droplet counts (Oil Red O‐positive particles) was performed. Data are expressed as mean ± SD (n = 3). Statistical significance was determined by one‐way analysis of variance (ANOVA). e) Immunohistochemical (IHC) analysis of mouse tumor specimens was performed using the Ki67 antibody. […] Data are expressed as mean ± SD (n = 3). Statistical significance was determined by one‐way analysis of variance (ANOVA). f) Immunohistochemical (IHC) analysis of mouse tumor specimens was performed using the Insig1 pS207/Insig2 pS151 antibody. […]

For “RKKRRQRRRLYPCIDSHLGEPHKFKRE [Insig1/2 loop 1 peptide]”, the “high-fat diet-enhanced Insig1 S207 and Insig2 S151 phosphorylation in tumors” value was “reduced”.
